Data reported in article PMC8213057, “Targeting ALK2: An Open Science Approach to Developing Therapeutics for the Treatment of Diffuse Intrinsic Pontine Glioma” (Journal of Medicinal Chemistry, 2020).

What was measured:
PKN3/PRK3 = PKN3/PRK3 (Homo sapiens, UniProt Q6P5Z2); conditions: 1 μM; Run 1, Run 2
SRPK1 = SRPK1 (Homo sapiens, UniProt Q96SB4); test: biochemical; conditions: read-out: % enzyme activity, 1 μM; Run 1, Run 2
JNK1 = JNK1 (Homo sapiens, UniProt P45983); test: biochemical; conditions: read-out: % enzyme activity, 1 μM; Run 1, Run 2
ZAP70 = biological target: T1, ZAP70 (Homo sapiens, UniProt P43403); test: biochemical; conditions: read-out: % enzyme activity, 1 μM; Run 1, Run 2
T1 sequence (P43403 1-619): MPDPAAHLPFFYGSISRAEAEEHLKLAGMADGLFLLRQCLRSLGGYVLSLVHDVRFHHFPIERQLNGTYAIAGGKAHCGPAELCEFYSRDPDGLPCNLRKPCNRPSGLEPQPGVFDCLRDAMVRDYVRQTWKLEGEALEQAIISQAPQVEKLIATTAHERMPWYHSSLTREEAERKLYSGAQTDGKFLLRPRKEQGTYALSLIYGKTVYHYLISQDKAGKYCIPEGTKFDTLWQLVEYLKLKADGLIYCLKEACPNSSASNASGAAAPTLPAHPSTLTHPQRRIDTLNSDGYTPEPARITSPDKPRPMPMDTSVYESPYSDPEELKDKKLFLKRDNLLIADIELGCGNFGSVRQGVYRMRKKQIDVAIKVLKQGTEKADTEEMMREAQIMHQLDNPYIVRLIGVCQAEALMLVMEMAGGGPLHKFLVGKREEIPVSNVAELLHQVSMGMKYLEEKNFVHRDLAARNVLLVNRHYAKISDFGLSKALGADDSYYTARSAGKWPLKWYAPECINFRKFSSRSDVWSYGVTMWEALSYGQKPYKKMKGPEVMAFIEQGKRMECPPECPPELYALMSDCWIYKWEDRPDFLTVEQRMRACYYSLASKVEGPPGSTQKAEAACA

CK2a = CK2a (Homo sapiens, UniProt P68400); conditions: 1 μM; Run 1, Run 2
CHK2 = CHK2 (Homo sapiens, UniProt O96017); test: biochemical; conditions: read-out: % enzyme activity, 1 μM; Run 1, Run 2
FLT3 = biological target: T2, FLT3 (Homo sapiens, UniProt P36888); test: 375-member kinase panel; type: biochemical; conditions: Run 1, Run 2; for % enzyme activity: 1 μM; for remaining activity at 1 µM: read-out: % enzyme activity, 1 μM
T2 construct: purchased Reaction Biology Corporation
T2 sequence (P36888 27-993): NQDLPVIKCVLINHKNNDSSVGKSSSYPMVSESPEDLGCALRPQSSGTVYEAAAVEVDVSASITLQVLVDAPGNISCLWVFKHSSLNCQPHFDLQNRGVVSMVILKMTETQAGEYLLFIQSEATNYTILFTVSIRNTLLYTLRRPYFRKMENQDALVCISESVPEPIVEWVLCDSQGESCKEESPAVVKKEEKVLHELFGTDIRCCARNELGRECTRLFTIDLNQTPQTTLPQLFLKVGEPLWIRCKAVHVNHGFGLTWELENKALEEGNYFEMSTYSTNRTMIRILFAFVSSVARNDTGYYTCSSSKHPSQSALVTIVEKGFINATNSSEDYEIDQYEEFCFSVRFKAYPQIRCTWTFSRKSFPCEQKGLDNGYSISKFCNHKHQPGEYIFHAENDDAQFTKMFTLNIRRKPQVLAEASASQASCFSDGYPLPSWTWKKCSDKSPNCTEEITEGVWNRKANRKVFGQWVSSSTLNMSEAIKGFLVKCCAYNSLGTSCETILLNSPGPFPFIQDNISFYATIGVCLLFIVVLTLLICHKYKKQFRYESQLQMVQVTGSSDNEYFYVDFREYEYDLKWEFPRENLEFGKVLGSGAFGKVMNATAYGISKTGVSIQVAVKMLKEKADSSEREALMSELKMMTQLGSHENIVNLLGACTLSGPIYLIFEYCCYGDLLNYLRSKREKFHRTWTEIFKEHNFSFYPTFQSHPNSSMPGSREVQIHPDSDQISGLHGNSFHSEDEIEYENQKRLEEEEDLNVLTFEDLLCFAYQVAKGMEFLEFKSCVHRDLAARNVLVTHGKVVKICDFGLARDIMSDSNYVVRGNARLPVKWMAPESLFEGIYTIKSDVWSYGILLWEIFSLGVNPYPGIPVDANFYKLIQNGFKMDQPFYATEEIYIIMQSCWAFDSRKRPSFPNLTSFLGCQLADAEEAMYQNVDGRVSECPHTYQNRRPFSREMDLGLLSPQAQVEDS

PLK3 = PLK3 (Homo sapiens, UniProt Q9H4B4); test: biochemical; conditions: read-out: % enzyme activity, 1 μM; Run 1, Run 2
MAPKAPK2 = MAPKAPK2 (Homo sapiens, UniProt P49137); conditions: 1 μM; Run 1, Run 2
WEE1 = WEE1 (Homo sapiens, UniProt P30291); test: biochemical; conditions: read-out: % enzyme activity, 1 μM; Run 1, Run 2
STK21/CIT = STK21/CIT (Homo sapiens, UniProt O14578); conditions: 1 μM; Run 1, Run 2
CK1g2 = CK1g2 (Homo sapiens, UniProt P78368); conditions: 1 μM; Run 1, Run 2
ACK1 = ACK1 (Homo sapiens, UniProt Q07912); conditions: 1 μM; Run 1, Run 2
ERN2/IRE2 = ERN2/IRE2 (Homo sapiens, UniProt Q76MJ5); conditions: 1 μM; Run 1, Run 2
EPHA7 = EPHA7 (Homo sapiens, UniProt Q15375); conditions: 1 μM; Run 1, Run 2
CAMK2a = CAMK2a (Homo sapiens, UniProt Q9UQM7); conditions: 1 μM; Run 1, Run 2

PLK3, sequence (Q9H4B4 whole entry): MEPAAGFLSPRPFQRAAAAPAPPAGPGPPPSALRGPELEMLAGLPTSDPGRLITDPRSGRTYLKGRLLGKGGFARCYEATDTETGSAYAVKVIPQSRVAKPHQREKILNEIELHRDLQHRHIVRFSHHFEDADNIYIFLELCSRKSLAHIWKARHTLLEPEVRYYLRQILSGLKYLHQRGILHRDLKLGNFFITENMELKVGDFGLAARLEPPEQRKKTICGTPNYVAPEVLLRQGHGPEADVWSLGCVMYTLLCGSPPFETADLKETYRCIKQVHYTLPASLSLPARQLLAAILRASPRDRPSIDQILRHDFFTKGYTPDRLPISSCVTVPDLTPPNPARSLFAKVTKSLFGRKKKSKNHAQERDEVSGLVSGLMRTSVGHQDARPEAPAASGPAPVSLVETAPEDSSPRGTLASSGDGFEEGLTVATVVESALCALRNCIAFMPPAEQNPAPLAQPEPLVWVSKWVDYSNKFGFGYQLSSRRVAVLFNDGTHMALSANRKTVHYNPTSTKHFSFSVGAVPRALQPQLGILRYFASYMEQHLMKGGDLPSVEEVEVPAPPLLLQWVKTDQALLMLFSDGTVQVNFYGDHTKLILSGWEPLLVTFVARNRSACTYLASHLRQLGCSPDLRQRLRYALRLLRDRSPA
CK1g2, sequence (P78368 whole entry): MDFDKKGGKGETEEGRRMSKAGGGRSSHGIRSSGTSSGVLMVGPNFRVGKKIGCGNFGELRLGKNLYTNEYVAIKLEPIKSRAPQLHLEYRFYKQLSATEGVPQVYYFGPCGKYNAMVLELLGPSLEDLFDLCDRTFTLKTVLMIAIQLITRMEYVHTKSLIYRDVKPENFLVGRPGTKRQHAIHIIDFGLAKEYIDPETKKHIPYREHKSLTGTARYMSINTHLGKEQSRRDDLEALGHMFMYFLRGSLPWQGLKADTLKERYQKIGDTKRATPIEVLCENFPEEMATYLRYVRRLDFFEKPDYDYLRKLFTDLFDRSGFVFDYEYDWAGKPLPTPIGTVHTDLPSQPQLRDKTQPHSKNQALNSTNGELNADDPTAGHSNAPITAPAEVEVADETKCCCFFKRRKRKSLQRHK
MAPKAPK2, sequence (P49137 whole entry): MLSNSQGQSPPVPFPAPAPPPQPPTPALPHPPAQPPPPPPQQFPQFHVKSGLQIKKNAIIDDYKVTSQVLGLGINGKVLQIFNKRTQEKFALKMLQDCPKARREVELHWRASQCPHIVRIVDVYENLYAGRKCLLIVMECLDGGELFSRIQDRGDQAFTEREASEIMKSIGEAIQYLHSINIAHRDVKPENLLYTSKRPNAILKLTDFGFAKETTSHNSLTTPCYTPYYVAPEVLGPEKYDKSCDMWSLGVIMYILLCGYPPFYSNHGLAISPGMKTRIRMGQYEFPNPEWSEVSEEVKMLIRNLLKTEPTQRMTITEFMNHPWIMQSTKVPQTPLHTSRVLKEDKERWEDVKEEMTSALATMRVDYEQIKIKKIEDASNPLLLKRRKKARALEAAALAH
ACK1, sequence (Q07912 whole entry): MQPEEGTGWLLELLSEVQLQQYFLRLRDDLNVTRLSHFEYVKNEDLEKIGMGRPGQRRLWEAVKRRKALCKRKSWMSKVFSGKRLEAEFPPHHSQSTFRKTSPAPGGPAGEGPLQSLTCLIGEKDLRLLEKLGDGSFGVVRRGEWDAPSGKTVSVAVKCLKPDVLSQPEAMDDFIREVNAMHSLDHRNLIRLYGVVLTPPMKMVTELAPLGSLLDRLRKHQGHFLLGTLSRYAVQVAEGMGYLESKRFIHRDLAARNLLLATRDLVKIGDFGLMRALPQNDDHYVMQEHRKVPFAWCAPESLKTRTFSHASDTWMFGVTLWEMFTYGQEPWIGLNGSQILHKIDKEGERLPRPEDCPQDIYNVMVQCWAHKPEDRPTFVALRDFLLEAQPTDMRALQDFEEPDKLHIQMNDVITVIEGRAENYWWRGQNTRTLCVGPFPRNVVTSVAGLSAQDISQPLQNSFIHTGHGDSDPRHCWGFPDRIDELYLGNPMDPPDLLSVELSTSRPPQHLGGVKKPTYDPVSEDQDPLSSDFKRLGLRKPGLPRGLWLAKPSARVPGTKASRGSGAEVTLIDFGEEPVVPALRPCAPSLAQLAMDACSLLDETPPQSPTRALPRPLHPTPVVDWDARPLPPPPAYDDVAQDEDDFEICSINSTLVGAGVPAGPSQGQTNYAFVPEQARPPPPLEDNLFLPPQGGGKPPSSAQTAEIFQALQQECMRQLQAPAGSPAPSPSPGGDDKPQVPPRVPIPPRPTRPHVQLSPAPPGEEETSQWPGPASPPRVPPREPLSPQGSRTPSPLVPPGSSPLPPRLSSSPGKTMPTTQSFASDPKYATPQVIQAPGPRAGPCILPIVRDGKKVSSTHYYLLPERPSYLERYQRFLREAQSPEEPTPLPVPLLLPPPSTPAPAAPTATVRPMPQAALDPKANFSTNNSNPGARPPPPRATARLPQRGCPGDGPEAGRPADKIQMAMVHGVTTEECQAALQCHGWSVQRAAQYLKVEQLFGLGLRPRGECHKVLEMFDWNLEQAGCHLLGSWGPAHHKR
PKN3/PRK3, sequence (Q6P5Z2 whole entry): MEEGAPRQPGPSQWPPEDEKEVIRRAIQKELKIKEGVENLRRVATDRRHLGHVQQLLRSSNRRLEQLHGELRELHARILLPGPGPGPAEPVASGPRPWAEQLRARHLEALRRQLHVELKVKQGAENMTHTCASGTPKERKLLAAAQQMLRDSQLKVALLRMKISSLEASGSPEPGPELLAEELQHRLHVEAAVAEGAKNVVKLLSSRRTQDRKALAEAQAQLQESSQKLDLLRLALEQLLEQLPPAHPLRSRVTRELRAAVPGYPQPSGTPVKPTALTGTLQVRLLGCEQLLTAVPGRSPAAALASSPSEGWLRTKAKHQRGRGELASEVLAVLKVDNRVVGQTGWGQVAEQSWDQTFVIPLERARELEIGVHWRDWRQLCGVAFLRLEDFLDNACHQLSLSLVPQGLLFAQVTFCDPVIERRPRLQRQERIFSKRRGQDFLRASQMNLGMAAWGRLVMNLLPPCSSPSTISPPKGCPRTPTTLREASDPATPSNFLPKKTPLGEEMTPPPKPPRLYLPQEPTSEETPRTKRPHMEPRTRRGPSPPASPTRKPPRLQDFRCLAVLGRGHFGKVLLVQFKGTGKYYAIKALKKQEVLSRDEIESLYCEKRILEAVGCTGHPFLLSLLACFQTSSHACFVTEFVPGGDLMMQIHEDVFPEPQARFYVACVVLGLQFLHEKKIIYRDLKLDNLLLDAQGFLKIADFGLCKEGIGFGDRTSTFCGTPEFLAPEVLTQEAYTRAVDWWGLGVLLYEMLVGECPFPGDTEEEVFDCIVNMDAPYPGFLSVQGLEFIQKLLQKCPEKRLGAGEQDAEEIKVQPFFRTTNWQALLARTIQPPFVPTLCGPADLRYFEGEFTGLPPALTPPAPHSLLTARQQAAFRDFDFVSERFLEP
EPHA7, sequence (Q15375 28-998): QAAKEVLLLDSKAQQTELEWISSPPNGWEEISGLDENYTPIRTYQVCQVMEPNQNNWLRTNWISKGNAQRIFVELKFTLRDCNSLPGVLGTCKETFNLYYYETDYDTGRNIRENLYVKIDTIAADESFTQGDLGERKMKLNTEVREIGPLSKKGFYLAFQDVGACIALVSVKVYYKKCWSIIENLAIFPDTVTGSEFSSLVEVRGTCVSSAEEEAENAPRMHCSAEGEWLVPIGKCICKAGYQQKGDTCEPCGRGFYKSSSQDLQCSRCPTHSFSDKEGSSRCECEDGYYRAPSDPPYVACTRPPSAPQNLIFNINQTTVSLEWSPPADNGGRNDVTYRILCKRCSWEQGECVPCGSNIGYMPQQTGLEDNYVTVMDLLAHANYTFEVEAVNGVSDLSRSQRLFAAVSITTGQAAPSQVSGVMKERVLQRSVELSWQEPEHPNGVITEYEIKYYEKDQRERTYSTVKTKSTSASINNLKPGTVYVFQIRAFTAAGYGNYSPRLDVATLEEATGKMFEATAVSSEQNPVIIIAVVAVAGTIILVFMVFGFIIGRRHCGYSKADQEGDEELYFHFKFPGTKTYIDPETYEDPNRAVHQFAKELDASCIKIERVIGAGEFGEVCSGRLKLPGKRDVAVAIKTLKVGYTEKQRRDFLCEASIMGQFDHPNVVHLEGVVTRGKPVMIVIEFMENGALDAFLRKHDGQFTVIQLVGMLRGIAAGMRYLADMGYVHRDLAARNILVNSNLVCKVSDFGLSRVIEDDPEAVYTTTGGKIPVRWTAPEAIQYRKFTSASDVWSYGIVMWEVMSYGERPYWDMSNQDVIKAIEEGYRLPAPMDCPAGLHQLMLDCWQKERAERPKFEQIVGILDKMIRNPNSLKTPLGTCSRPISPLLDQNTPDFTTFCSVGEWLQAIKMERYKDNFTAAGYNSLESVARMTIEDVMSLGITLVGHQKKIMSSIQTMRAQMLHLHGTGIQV
CK2a, sequence (P68400 whole entry): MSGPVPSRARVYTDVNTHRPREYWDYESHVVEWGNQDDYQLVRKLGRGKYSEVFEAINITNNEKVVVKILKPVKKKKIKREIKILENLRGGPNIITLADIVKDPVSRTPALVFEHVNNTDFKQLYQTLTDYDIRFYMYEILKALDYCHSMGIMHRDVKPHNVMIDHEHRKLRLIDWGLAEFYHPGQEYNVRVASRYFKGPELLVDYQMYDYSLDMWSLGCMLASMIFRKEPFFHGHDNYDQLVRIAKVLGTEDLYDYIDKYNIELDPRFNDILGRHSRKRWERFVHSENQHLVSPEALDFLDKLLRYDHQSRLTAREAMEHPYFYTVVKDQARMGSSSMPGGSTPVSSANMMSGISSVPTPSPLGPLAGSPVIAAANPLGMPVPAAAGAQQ

SMILES	% enzyme activity (PKN3/PRK3) [%]	remaining activity at 1 µM (SRPK1) [%]	remaining activity at 1 µM (JNK1) [%]	remaining activity at 1 µM (ZAP70) [%]	% enzyme activity (CK2a) [%]	remaining activity at 1 µM (CHK2) [%]	% enzyme activity (FLT3) [%]	remaining activity at 1 µM (FLT3) [%]	remaining activity at 1 µM (PLK3) [%]	% enzyme activity (MAPKAPK2) [%]	remaining activity at 1 µM (WEE1) [%]	% enzyme activity (STK21/CIT) [%]	% enzyme activity (CK1g2) [%]	% enzyme activity (ACK1) [%]	% enzyme activity (ERN2/IRE2) [%]	% enzyme activity (EPHA7) [%]	% enzyme activity (CAMK2a) [%]
COc1cc(-c2cncc(-c3ccc(N4CCN(C)CC4)cc3)c2C)cc(F)c1C(N)=O [Compound 26a, 2-Fluoro-6-methoxy-4-(4-methyl-5-(4-(4-methylpiperazin-1-yl)phenyl)pyridin-3-yl)benzamide]	93.55	112	90.6	96.2	91.32	99.7	76.15	77.1	95	101.22	105	84.42	75.72	65.46	97.32	98.85	83.69
COc1cc(-c2cncc(-c3ccc(N4C[C@@H](C)N(C)[C@@H](C)C4)cc3)c2C)cc(F)c1C(N)=O [Compound 26c, 2-Fluoro-6-methoxy-4-(4-methyl-5-(4-((3R,5S)-3,4,5-trimethylpiperazin-1-yl)phenyl)pyridin-3-yl)benzamide]	96.44	89.3	86.9	98.7	86.32	102	81.48	84.3	97.7	93.08	105	84.97	85.61	76.07	96.29	98.36	93.72
